Our source for the IC50 values is US20240400561A1, “NOVEL SUBSTITUTED SULFONYLUREA COMPOUNDS AS INHIBITORS OF INTERLEUKIN-1 ACTIVITY” (Viva Star Biosciences (Suzhou) Co., Ltd., priority 2021, published 2024).

The structures appear in SMILES notation. pIC50: −log10 of the molar value.

T1 sequence (Q96P20 whole entry): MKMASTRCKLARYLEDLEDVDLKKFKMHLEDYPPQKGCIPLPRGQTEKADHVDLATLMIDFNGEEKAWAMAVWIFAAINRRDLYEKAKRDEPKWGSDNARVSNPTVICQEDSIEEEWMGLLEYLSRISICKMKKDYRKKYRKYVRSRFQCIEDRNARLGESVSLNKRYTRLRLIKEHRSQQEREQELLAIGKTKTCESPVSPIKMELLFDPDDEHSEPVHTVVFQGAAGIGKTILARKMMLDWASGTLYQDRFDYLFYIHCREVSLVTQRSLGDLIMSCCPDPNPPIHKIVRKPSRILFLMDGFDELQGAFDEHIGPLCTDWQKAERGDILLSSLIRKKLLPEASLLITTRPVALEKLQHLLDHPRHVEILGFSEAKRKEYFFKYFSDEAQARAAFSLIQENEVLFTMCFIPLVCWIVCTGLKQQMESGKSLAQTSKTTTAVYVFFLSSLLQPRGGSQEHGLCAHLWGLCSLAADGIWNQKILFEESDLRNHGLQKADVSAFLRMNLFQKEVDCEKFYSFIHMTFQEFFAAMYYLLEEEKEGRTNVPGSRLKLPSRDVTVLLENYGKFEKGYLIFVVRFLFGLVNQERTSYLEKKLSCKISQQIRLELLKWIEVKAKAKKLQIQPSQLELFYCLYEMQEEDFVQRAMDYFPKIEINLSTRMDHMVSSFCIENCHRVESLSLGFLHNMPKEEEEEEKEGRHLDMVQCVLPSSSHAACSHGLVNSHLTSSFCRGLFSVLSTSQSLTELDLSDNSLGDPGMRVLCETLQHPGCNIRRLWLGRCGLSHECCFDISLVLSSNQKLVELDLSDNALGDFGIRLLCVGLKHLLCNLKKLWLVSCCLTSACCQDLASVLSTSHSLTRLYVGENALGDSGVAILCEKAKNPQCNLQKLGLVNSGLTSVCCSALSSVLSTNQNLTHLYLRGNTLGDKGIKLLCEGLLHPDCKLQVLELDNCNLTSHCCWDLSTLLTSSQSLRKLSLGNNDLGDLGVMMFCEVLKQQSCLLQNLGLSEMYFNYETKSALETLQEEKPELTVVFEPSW

This test addresses T1, NLRP3 (Homo sapiens, UniProt Q96P20).
T1 construct: Seed THP-1 cells (5.56*10^5 cells/mL) containing 1.0 ug/mL LPS; endogenous in cells; host or cells: THP-1 cells
Kind of test: THP-1 cell assay (LPS priming, nigericin), IL1β release by HTRF; called pyroptosis assay, THP IC50. The settings on record: NLRP3 inhibitory activity; THP-1 cells, 1.0 ug/mL LPS, compound 3 hrs, nigericin 5 uM 1 hr, IL1β in supernatant. The test is classed as cell-based. The protocol: The following method was used for compound screening. • 1. Seed THP-1 cells (5.56*10^5 cells/mL) containing 1.0 ug/mL LPS (SIGMA, L6529) in 45 uL RPMI 1640 medium (without FBS) into 384-well plate (Thermo Scientific, 164688). • 2. Add 5 uL compound (10 doses starting from 5 uM, 1:3 dilution) or vehicle (0.05% DMSO in medium) to the appropriate wells. • 3. Centrifuge the plates at 1000 rpm for 2 mins and incubate for 3 hrs at 37° C., 5% CO2. • 4. Add 5 uL nigericin (MEC, HY-100381) (final conc. 5 uM) to sample wells and positive control wells; add 5 uL RPMI 1640 medium to negative control wells. • 5. Centrifuge plates at 1000 rpm for 2 mins and incubate for 1 hr at 37° C., 5% CO2. • 6. At the end of the incubation period, centrifuge plates at 1000 rpm for 6 mins and transfer 8 uL supernatant into 384-well assay plates (PerkinElmer, 6008280). • 7. Add 8 ul RPMI 1640 medium into each well and spin down for 10 secs. • 8. Prepare the standard solutions and pre-mixed IL1β antibody solution of Human […] kits (PerkinElmer, 62HIL1BPEH) according to the instruction. • 9. Add 16 uL standard solutions into clear wells of 384-well assay plates. • 10. Add 4 uL pre-mixed IL1β antibody solution to all wells including sample wells, positive control wells, negative control wells and standard solutions wells. • 11. Seal the plates, spin down for 10 secs, incubation for overnight at RT and read on an HTRF® compatible reader (BMG LABTECH, PHERAstar FS). • 12. The concentrations of IL1β for treated wells are calculated by the standard curve. • 13. The IC50 data is fitted to a non-liner regression equation (log inhibitor vs. response—Variable slope four parameters)).
For orientation: In TR-FRET formats the signal depends on donor and acceptor labels being close together.
As to `Cc1cc2c(c(NC(=O)NS(=O)(=O)c3cc(OC4CC4)cnn3)c1-c1ccn3nccc3c1)CCC2` [Example 81, 5-cyclopropoxy-N-((6-methyl-5-(pyrazolo[1,5-a]pyridin-5-yl)-2,3-dihydro-1H-inden-4-yl)carbamoyl)-1H-pyridazine-3-sulfonamide], the negative logarithm of the IC50 (pIC50) (commonly the IC50 on a negative log10 scale, so that one unit is a factor of ten) is at least 7.52. Under `CN(c1cncc(S(=O)(=O)NC(=O)Nc2c(-c3ccn4nccc4c3)ccc3c2CCC3)c1)C1CC1` [Example 30, 5-(cyclopropyl(methyl)amino)-N-((5-(pyrazolo[1,5-a]pyridin-5-yl)-2,3-dihydro-1H-inden-4-yl)carbamoyl)pyridine-3-sulfonamide] stands 6.52 to 7.52; under `CC(C)(O)c1csc(S(=O)(=O)NC(=O)Nc2c(-c3ccc4nncn4c3)ccc3c2CCC3)c1` [Example 61], 6.00 to 6.52. Under `Cc1c(-c2ccc3c(c2NC(=O)NS(=O)(=O)c2cc(C(C)(C)O)cs2)CCC3)ccn2ccnc12` [Example 72, 4-(2-hydroxypropan-2-yl)-N-((5-(8-methylimidazo[1,2-a]pyridin-7-yl)-2,3-dihydro-1H-inden-4-yl)carbamoyl)thiophene-2-sulfonamide] stands 6.52 to 7.52; under `O=C(Nc1c2c(cc(F)c1-c1ccn3nccc3c1)CCC2)NS(=O)(=O)c1ccn(C2CC2)n1` [Example 25, 1-cyclopropyl-N-((6-fluoro-5-(pyrazolo[1,5-a]pyridin-5-yl)-2,3-dihydro-1H-inden-4-yl)carbamoyl)pyrazole-3-sulfonamide], at least 7.52. `COC(c1cc(S(=O)(=O)NC(=O)Nc2c3c(cc(C)c2-c2ccn4nccc4c2)CCC3)nn1C)C1CC1` (stereo not drawn) [Example 15, 5-(cyclopropyl(methoxy)methyl)-1-methyl-N-((6-methyl-5-(pyrazolo[1,5-a]pyridin-5-yl)2,3-dihydro-1H-inden-4-yl)carbamoyl)-1H-pyrazole-3-sulfonamide] had a pIC50 of 6.52 to 7.52. Under `Cc1cc2c(c(NC(=O)NS(=O)(=O)c3cnn(CC4CC4)c3)c1-c1ccc3ccnn3c1)CCC2` [Example 21, 1-(cyclopropylmethyl)-N-((6-methyl-5-(pyrazolo[1,5-a]pyridin-6-yl)-2,3-dihydro-1H-inden-4-yl)carbamoyl)-1H-pyrazole-4-sulfonamide] stands at least 7.52. As for `Cc1cc2c(c(NC(=O)NS(=O)(=O)c3ccc(=O)n(CC4CC4)c3)c1-c1ccn3nccc3c1)CCC2` [Example 39, 1-(cyclopropylmethyl)-N-((6-methyl-5-(pyrazolo[1,5-a]pyridin-5-yl)-2,3-dihydro-1H-inden-4-yl)carbamoyl)-6-oxo-1,6-dihydropyridine-3-sulfonamide], the pIC50 is 6.52 to 7.52.

In turn, `Cc1cc2c(c(NC(=O)NS(=O)(=O)c3ccnc(C4CCC4)c3)c1-c1ccn3nccc3c1)CCC2` [Example 38, 2-cyclobutyl-N-((6-methyl-5-(pyrazolo[1,5-a]pyridin-5-yl)-2,3-dihydro-1H-inden-4-yl)carbamoyl)pyridine-4-sulfonamide] gave a pIC50 of 6.52 to 7.52. Under `O=C(Nc1c2c(cc(F)c1-c1ccn3nccc3c1)CCO2)NS(=O)(=O)c1ccn(C2CC2)n1` [Example 87, 1-cyclopropyl-N-((5-fluoro-6-(pyrazolo[1,5-a]pyridin-5-yl)-2,3-dihydrobenzofuran-7-yl)carbamoyl) 1H-pyrazole-3-sulfonamide] stands 6.00 to 6.52; under `Cc1cc2c(c(NC(=O)NS(=O)(=O)c3ccnc(OC4CC4)c3)c1-c1ccn3nccc3c1)CCC2` [Example 33, 2-cyclopropoxy-N-((6-methyl-5-(pyrazolo[1,5-a]pyridin-5-yl)-2,3-dihydro-1H-inden-4-yl)carbamoyl)pyridine-4-sulfonamide], at least 7.52; under `CC(C)(O)c1csc(S(=O)(=O)NC(=O)Nc2c(-c3ccc4nccn4c3)ccc3c2OCO3)c1` [Example 65, 4-(2-hydroxypropan-2-yl)-N-((5-(imidazo[1,2-a]pyridin-6-yl)benzo[d][1,3]dioxol-4-yl)carbamoyl)thiophene-2-sulfonamide], 6.52 to 7.52.
